Data reported in US8609680B2, “2,3-dihydro-1H-inden-1-yl-2,7-diazaspiro[3.5] nonane derivatives” (Pfizer Inc., priority 2010, dated 2013).

Target: T1, human GHSR1a (Homo sapiens, UniProt Q92847)
T1 construct: expressed in transfected cells; host or cells: HEK293 Tetracycline-Inducible cell line, used as membranes
Assay: Human Ghrelin SPA Binding Assay
Description: The SPA format was utilized for high throughput screening of test compounds and filter binding served for more comprehensive binding characterization.
Human Ghrelin SPA Binding Assay

T1 sequence (Q92847 whole entry): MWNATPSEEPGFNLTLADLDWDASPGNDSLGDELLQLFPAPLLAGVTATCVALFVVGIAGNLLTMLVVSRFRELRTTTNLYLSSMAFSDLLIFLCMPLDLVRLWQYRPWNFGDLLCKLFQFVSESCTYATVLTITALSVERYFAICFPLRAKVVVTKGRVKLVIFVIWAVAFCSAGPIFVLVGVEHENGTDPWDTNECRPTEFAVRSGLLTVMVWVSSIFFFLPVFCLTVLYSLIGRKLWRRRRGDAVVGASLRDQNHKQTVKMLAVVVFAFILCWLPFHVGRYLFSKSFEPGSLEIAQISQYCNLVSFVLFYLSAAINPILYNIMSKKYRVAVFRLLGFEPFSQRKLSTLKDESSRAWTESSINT

Structure (SMILES)	IC50 [nM]	Ki [nM]
CCn1ccc(CC(=O)N2CCC3(CC2)CN([C@@H]2CCc4cc(-c5ncccn5)ccc42)C3)n1 [Example 3AS]	143	122
O=C(Cc1cn(-c2ccccc2)cn1)N1CCC2(CC1)CN([C@@H]1CCc3cc(-c4ncccn4)ccc31)C2 [Example 3AV]	229	198
O=C(Cc1ccc(C(F)F)cn1)N1CCC2(CC1)CN([C@@H]1CCc3cc(-c4ncccn4)ccc31)C2 [Example 3AW]	949	785
Cc1cc(CC(=O)N2CCC3(CC2)CN([C@@H]2CCc4cc(-c5ncccn5)ccc42)C3)[nH]n1 [Example 3AX]	801	691
Cc1cc(-c2ccc3c(c2)CC[C@H]3N2CC3(CCN(C(=O)Cc4cn5nccnc5n4)CC3)C2)ncn1 [Example 3AY]	495	440
N#Cc1cc(-c2ccc3c(c2)CC[C@H]3N2CC3(CCN(C(=O)Cc4ccc(C5CC5)cn4)CC3)C2)ncn1 [Example 3AZ]	17.4	15.4
Cc1ccc(CC(=O)N2CCC3(CC2)CN([C@@H]2CCc4cc(-c5ccn(C)n5)ccc42)C3)nc1 [Example 3J]	52.9	46.5
COc1ccc(CC(=O)N2CCC3(CC2)CN([C@@H]2CCc4cc(-c5ccnc(C)n5)ccc42)C3)nc1 [Example 3K]	99.5	87.1
Cc1nn2cc(CC(=O)N3CCC4(CC3)CN([C@@H]3CCc5cc(-c6ncccn6)ccc53)C4)nc2s1 [Example 3O]	30.2	28.1
COc1ccc(NC(C)=O)c(CC(=O)N2CCC3(CC2)CN([C@@H]2CCc4cc(-c5ncccn5)ccc42)C3)c1 [Example 3P]	36.3	31.7
O=C(Cc1cn2ccccc2n1)N1CCC2(CC1)CN([C@@H]1CCc3cc(-c4ncccn4)ccc31)C2 [Example 3Q]	26.6	23
O=C(Cc1ccc2c(n1)OCCO2)N1CCC2(CC1)CN([C@@H]1CCc3cc(-c4ncccn4)ccc31)C2 [Example 3R]	25.5	22.2
Cc1ccc(CC(=O)N2CCC3(CC2)CN([C@@H]2CCc4cc(-c5nccc(C)n5)ccc42)C3)nc1 [Example 3T]	82.4	73
COc1ccc(CC(=O)N2CCC3(CC2)CN([C@@H]2CCc4cc(-c5cc(OC)ncn5)ccc42)C3)nc1 [Example 3V]	20.7	17.4
Cc1ccnc(-c2ccc3c(c2)CC[C@H]3N2CC3(CCN(C(=O)Cc4cn5nc(C)sc5n4)CC3)C2)n1 [Example 3Y]	30.7	25.9
Cc1ccn2cc(CC(=O)N3CCC4(CC3)CN([C@@H]3CCc5cc(-c6ccc(C(N)=O)cc6)ccc53)C4)nc2c1 [Example 4A, 4-[(1R)-1-{7-[(7-methylimidazo[1,2-a]pyridin-2-yl)acetyl]-2,7-diazaspiro[3.5]non-2-yl}-2,3-dihydro-1H-inden-5-yl]benzamide]	9.29	8.02
COc1ccc(CC(=O)N2CCC3(CC2)CN([C@@H]2CCc4cc(-c5ccc(C#N)nc5)ccc42)C3)nc1 [Example 4B, 5-[(1R)-1-{7-[(5-methoxypyridin-2-yl)acetyl]-2,7-diazaspiro[3.5]non-2-yl}-2,3-dihydro-1H-inden-5-yl]pyridine-2-carbonitrile]	70.5	60.7
CCc1ccc(CC(=O)N2CCC3(CC2)CN([C@@H]2CCc4cc(-c5ccc(C(N)=O)cc5)ccc42)C3)nc1 [Example 4C]	49.3	43.3
COc1ccc(CC(=O)N2CCC3(CC2)CN([C@@H]2CCc4cc(-c5ccc(C(N)=O)cc5)ccc42)C3)nc1 [Example 4D]	20.1	17.5
NC(=O)c1ccc(-c2ccc3c(c2)CC[C@H]3N2CC3(CCN(C(=O)Cc4cn5ccccc5n4)CC3)C2)cc1 [Example 4E]	42.6	36.8
